In ChEMBL document CHEMBL2163248, “Classification of inhibitors of hepatic organic anion transporting polypeptides (OATPs): influence of protein expression on drug-drug interactions” (J Med Chem, 2012):

Tests used:
[1] = target: T1, Solute carrier organic anion transporter family member 2B1 (Homo sapiens, UniProt O94956); test: Inhibition of human liver OATP2B1 expressed in HEK293 Flp-In cells assessed as reduction in [3H]E3S uptake at 20 uM incubated for 5 mins by scintillation counting; conditions: hek293, 5 min
T1 sequence (O94956 whole entry): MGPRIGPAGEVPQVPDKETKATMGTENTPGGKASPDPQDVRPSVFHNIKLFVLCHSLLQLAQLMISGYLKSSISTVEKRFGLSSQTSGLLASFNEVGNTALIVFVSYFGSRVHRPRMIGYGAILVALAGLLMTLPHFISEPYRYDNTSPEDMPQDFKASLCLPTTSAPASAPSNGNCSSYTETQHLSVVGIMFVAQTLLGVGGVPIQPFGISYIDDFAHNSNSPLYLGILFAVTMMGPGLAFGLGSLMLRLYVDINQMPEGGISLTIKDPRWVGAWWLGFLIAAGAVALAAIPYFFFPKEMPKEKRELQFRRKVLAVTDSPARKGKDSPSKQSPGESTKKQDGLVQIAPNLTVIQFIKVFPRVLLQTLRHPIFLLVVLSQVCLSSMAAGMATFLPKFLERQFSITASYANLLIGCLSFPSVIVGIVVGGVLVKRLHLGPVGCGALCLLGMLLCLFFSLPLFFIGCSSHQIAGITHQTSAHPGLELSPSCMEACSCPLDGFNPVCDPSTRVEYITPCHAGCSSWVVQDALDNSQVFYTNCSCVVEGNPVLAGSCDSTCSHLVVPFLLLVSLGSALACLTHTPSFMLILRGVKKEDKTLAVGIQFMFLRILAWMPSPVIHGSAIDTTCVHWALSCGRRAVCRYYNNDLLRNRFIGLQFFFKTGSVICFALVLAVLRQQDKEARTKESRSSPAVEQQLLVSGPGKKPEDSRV

[2] = target: T2, Solute carrier organic anion transporter family member 1B1 (Homo sapiens, UniProt Q9Y6L6); test: Inhibition of human liver OATP1B1 expressed in HEK293 Flp-In cells assessed as reduction in E17-betaG uptake at 20 uM by scintillation counting; conditions: hek293, 20 µM
T2 sequence (Q9Y6L6 whole entry): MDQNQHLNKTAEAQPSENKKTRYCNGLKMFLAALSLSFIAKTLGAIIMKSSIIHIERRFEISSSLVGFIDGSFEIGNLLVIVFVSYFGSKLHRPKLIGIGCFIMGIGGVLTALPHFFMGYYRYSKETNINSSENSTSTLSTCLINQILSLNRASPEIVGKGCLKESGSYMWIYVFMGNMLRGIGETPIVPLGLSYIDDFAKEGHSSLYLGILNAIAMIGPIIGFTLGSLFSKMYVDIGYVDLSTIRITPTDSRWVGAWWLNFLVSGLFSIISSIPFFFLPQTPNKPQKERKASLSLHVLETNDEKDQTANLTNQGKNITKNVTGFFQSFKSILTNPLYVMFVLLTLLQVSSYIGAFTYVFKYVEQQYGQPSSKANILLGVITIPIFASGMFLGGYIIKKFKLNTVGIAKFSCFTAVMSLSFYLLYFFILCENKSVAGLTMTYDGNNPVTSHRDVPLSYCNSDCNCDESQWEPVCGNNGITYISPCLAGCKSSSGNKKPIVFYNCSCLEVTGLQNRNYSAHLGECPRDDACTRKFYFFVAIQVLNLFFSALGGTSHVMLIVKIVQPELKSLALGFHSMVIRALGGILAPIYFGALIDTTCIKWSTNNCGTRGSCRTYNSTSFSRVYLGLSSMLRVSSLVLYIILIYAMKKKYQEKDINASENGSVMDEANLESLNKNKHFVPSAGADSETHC

[3] = target: T3, Solute carrier organic anion transporter family member 1B3 (Homo sapiens, UniProt Q9NPD5); test: Inhibition of human liver OATP1B3 expressed in HEK293 Flp-In cells assessed as reduction in [3H]E17-betaG uptake at 20 uM incubated for 5 mins by scintillation counting; conditions: hek293, 5 min
T3 sequence (Q9NPD5 whole entry): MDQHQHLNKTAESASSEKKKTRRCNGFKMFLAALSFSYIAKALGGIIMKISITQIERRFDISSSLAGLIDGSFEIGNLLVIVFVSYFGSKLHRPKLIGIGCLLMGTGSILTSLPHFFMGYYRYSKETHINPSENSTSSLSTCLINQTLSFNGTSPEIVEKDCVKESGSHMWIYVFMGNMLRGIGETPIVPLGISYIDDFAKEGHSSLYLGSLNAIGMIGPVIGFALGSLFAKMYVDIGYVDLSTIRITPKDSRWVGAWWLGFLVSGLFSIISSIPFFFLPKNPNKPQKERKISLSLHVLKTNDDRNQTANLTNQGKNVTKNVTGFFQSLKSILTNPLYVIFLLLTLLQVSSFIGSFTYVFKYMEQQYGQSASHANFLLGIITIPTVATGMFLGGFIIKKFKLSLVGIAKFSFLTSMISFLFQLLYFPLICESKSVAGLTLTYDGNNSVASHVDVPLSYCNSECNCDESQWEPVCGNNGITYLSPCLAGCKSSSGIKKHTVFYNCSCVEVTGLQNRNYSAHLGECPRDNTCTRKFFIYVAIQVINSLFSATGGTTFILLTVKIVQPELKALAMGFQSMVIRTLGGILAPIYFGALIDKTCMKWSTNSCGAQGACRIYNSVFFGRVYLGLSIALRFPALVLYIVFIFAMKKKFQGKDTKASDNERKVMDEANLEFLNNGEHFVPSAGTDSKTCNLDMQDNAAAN

| Compound | INH [1] | INH [2] | INH [3] |
| --- | --- | --- | --- |
| COC(=O)N[C@H](C(=O)N[C@@H](Cc1ccccc1)[C@@H](O)CN(Cc1ccc(-c2ccccn2)cc1)NC(=O)[C@@H](NC(=O)OC)C(C)(C)C)C(C)(C)C [ATAZANAVIR] | 90.1% | 95% | 92.6% |
| CNCC[C@@H](Oc1ccccc1C)c1ccccc1 [ATOMOXETINE] | 16.3% | -7.5% | 31.6% |
| O=C(O)[C@H]1O[C@@H](Oc2cc3oc(-c4ccccc4)cc(=O)c3c(O)c2O)[C@H](O)[C@@H](O)[C@@H]1O [BAICALIN] | 59.1% | 27.6% | 20.9% |
| CCc1oc2ccccc2c1C(=O)c1cc(Br)c(O)c(Br)c1 [BENZBROMARONE] | 76.3% | 86.6% | 19.5% |
| COc1ccc2cc3[n+](cc2c1OC)CCc1cc2c(cc1-3)OCO2 [BERBERINE] | 18.5% | 32% | 19.4% |
| CCCC1O[C@@H]2C[C@H]3[C@@H]4CCC5=CC(=O)C=C[C@]5(C)[C@H]4[C@@H](O)C[C@]3(C)[C@]2(C(=O)CO)O1 (stereo partly drawn) [BUDESONIDE] | 30.3% | 73.2% | 79% |
| CCc1cccc2cc(C(O)CNC(C)(C)C)oc12 (stereo not drawn) [BUFURALOL] | -7% | -13.9% | 23.8% |
| CC(NC(C)(C)C)C(=O)c1cccc(Cl)c1 (stereo not drawn) [BUPROPION] | 17% | 8.5% | 7.2% |
| O=C1CC2(CCCC2)CC(=O)N1CCCCN1CCN(c2ncccn2)CC1 [BUSPIRONE] | -13.9% | 33.3% | -5.6% |
| Cn1c(=O)c2c(ncn2C)n(C)c1=O [CAFFEINE] | 3.2% | -1.8% | 22.1% |
| C[C@H](CS)C(=O)N1CCC[C@H]1C(=O)O [CAPTOPRIL] | 39.1% | 18.6% | 4% |
| NC(=O)N1c2ccccc2C=Cc2ccccc21 [CARBAMAZEPINE] | 17.3% | 13.3% | 23.2% |
| C[N+](C)(C)CC(O)CC(=O)[O-] (stereo not drawn) [CARNITINE] | 15.5% | 36.6% | -9.3% |
| CC1=C(C(=O)O)N2C(=O)[C@@H](NC(=O)[C@H](N)c3ccc(O)cc3)[C@H]2SC1 [CEFADROXIL] | 3.5% | 9.4% | 21% |
| Cn1nnnc1SCC1=C(C(=O)O)N2C(=O)[C@@H](NC(=O)[C@H](O)c3ccccc3)[C@H]2SC1 [CEFAMANDOLE] | 2.7% | 30.2% | 16.5% |
| COCc1c(C(C)C)nc(C(C)C)c(/C=C/[C@@H](O)C[C@@H](O)CC(=O)O)c1-c1ccc(F)cc1 [CERIVASTATIN] | 40.1% | 73.6% | 68.1% |
| CN(C)CCCN1c2ccccc2Sc2ccc(Cl)cc21 [CHLORPROMAZINE] | 4.3% | 27.1% | 22.8% |
| CN(C)CC/C=C1/c2ccccc2Sc2ccc(Cl)cc21 [CHLORPROTHIXENE] | 26.6% | 24% | -6.9% |

| Compound | INH [1] | INH [2] | INH [3] |
| --- | --- | --- | --- |
| C[C@H](CCC(=O)O)[C@H]1CC[C@H]2[C@@H]3[C@H](O)C[C@@H]4C[C@H](O)CC[C@]4(C)[C@H]3C[C@H](O)[C@]12C [CHOLIC ACID] | 20.2% | 41.6% | 40.8% |
| CN/C(=N/CCSCc1nc[nH]c1C)NC#N [CIMETIDINE] | -6.2% | 40.3% | 24.8% |
| Clc1ccccc1C(c1ccccc1)(c1ccccc1)n1ccnc1 [CLOTRIMAZOLE] | -37.1% | 32.3% | -120.4% |
| COc1cc2c(c(OC)c1OC)-c1ccc(OC)c(=O)cc1[C@@H](NC(C)=O)CC2 [COLCHICINE] | 24.4% | 45.2% | -3.9% |
| O=c1ccc2ccccc2o1 [COUMARIN] | 9.3% | 7.6% | 38.2% |
| O=c1oc2cc(O)ccc2c2oc3cc(O)ccc3c12 [COUMESTROL] | -41.5% | 73.2% | -21.1% |
| O=c1c(-c2ccc(O)cc2)coc2cc(O)ccc12 [DAIDZEIN] | 32% | 35% | 0.7% |
| C[C@@H]1C[C@H]2[C@@H]3CCC4=CC(=O)C=C[C@]4(C)[C@@]3(F)[C@@H](O)C[C@]2(C)[C@@]1(O)C(=O)CO [DEXAMETHASONE] | -12.5% | 10.7% | 34.2% |
| COc1ccc2c(c1)[C@]13CCCC[C@@H]1[C@H](C2)N(C)CC3 [DEXTROMETHORPHAN] | 15.9% | 36.3% | -21.9% |
| CC/C(=C(/CC)c1ccc(O)cc1)c1ccc(O)cc1 [DIETHYLSTILBESTROL] | 68.1% | 62.1% | 31.1% |
| COc1ccc([C@@H]2Sc3ccccc3N(CCN(C)C)C(=O)[C@@H]2OC(C)=O)cc1 [DILTIAZEM] | -9.1% | 3.2% | 4.1% |
| CC(C)N(CCC(C(N)=O)(c1ccccc1)c1ccccn1)C(C)C (stereo not drawn) [DISOPYRAMIDE] | 18.5% | 47.5% | 8.6% |
| COc1cc2nc(N3CCN(C(=O)C4COc5ccccc5O4)CC3)nc(N)c2cc1OC (stereo not drawn) [DOXAZOSIN] | 45.8% | 28.8% | -17.3% |
| O=C1Nc2ccc(Cl)cc2[C@@](C#CC2CC2)(C(F)(F)F)O1 [EFAVIRENZ] | 43.2% | 40.9% | 18.2% |
| CC[C@H]1OC(=O)[C@H](C)[C@@H](O[C@H]2C[C@@](C)(OC)[C@@H](O)[C@H](C)O2)[C@H](C)[C@@H](O[C@@H]2O[C@H](C)C[C@H](N(C)C)[C@H]2O)[C@](C)(O)C[C@@H](C)C(=O)[C@H](C)[C@@H](O)[C@]1(C)O [ERYTHROMYCIN] | -19% | 58.8% | 45.8% |
| C[C@]12CC[C@@H]3c4ccc(O)cc4CC[C@H]3[C@@H]1CC[C@@H]2O [ESTRADIOL] | 47.4% | 102.8% | 39.3% |
| C[C@]12CC[C@@H]3c4ccc(OS(=O)(=O)O)cc4CC[C@H]3[C@@H]1CCC2=O [ESTRONE SULFURIC ACID] | 20.8% | 98.1% | 10.1% |
| O=C1[C@H](CC[C@H](O)c2ccc(F)cc2)[C@@H](c2ccc(O)cc2)N1c1ccc(F)cc1 [EZETIMIBE] | -8.9% | 55.5% | 1.5% |
